This note sets out measurements from ChEMBL document CHEMBL4616680, “Shedding X-ray Light on the Role of Magnesium in the Activity of Mycobacterium tuberculosis Salicylate Synthase (MbtI) for Drug Design” (J Med Chem, 2020).

The experiment deals with MRC5. The experiment is described as follows: Cytotoxicity in human MRC5 cells. Format: cell-based.

Bounds are passed on as bounds.

By IC50 is commonly meant the concentration needed to halve the response being measured. A lower IC50 goes with inhibition by little substance.

The molecule `N#Cc1cccc(-c2ccc(C(=O)O)o2)c1` had an IC50 of over 100 µM.
